Where two headings read alike, the source gives them in different places.
Key:
[1] = system: apo E null mice; test: Protection against LDL-induced monocyte chemotactic activity by HDL from apo E null mice given oral peptides; format: in vivo; settings: for potency compared with D-4F in enhancing HDL protective capacity: apo E null mice, added to the drinking water (FIG. 4)
Method: FIG. 4 illustrates the effect of oral apoA-1 peptide mimetic and apoJ peptide on HDL protective capacity. […] After 24 hrs blood was collected, plasma fractionated by FPLC and fractions containing LDL (designated as mLDL for murine LDL) and fractions containing HDL (designated as mHDL) were separately pooled and HDL protective capacity against LDL oxidation as determined by LDL-induced monocyte chemotactic activity was determined. For the assay controls the culture wells received no lipoproteins (no additions), mLDL alone (at 200 μg cholesterol/ml), or mLDL+standard normal human HDL (designated as Cont. h HDL, at 350 μg HDL cholesterol/ml).
For testing the murine HDL, mLDL together with murine HDL (+F mHDL or +J mHDL) were added to artery wall cell cultures. […] The murine HDL was used at 100 μg cholesterol/ml.

[2] = system: Human aortic endothelial cells; test: Prevention of LDL-induced monocyte chemotactic activity by pre-treatment (pre-incubation) of artery wall cells; format: cell-based; settings: pre-incubation 6 hrs, washed, then control human LDL 200 μg protein/ml overnight; relative to D-4F (FIG. 2)
Method: FIG. 2 illustrates a comparison of the effect of D-4F with the effect of D-J336 on the prevention of LDL induced monocyte chemotactic activity in a pre-incubation. Human aortic endothelial cells were pre-incubated with D-J336 or D-4F at 4, 2, and 1 μg/ml for DJ336 or 100, 50, 25, and 12.5 μg/ml for D-4F for 6 hrs. The cultures were then washed and were incubated with medium alone (no addition), or with control human LDL (200 μg protein/ml), or with control human LDL+control human HDL (350 μg HDL protein/ml) as assay controls. The wells that were pre-treated with peptides received the control human LDL at 200 μg protein/ml. Following overnight incubation, the supernatants were assayed for monocyte chemotactic activity.

[3] = system: apo E null mice; settings: added to the drinking water, 24 hrs, human artery wall co-culture (FIG. 6)
Method: FIG. 6 illustrates the effect of oral apoA-1 peptide mimetic and apoJ peptide on HDL protective capacity. […] After 24 hrs blood was collected, plasma fractionated by FPLC and fractions containing HDL (designated as mHDL) were pooled and HDL protective capacity against PAPC oxidation as determined by the induction of monocyte chemotactic activity was determined. For the assay controls the culture wells received no lipoproteins (no additions), the phospholipid PAPC at 20 μg /ml+HPODE, at 1.0 μg/ml, or PAPC+HPODE plus standard normal human HDL (at 350 μg HDL cholesterol/ml and designated as +Cont. h HDL).
For testing the murine HDL, PAPC+HPODE together with murine HDL (+F mHDL or +J mHDL) were added to artery wall cell cultures. […] The murine HDL was used at 100 μg cholesterol/ml.

[4] = system: LDL receptor null mice; test: HDL protective capacity in LDL receptor null mice given peptide in drinking water; format: in vivo
Method: D-4F designated as F, or the apoJ peptide made from D amino acids (D-J336, designated as J) was added to the drinking water of LDL receptor null mice (4 per group) at 0.25 or 0.5 mg per ml of drinking water. After 24- or 48-hrs blood was collected from the mice and their HDL was isolated and tested for its ability to protect against LDL-induced monocyte chemotactic activity. Assay controls included culture wells that received no lipoproteins (no addition), or control human LDL alone (designated as LDL, 200 μg cholesterol/ml), or control LDL+control human HDL (designated as +HDL, 350 μg HDL cholesterol). For testing the mouse HDL, the control LDL was added together with mouse HDL (+F HDL or +J HDL) to artery wall cell cultures. The mouse HDL was added at 100 μg cholesterol/ml respectively.

[5] = system: PON1; settings: apo E null mice, added to the drinking water, 24 hrs, plasma (FIG. 7)
Method: After 24 hrs blood was collected and plasma was assayed for PON1 activity.

[6] = system: apo E null mice; test: LDL susceptibility to oxidation: ability of LDL from apoE null mice given oral peptides to induce monocyte chemotactic activity; format: in vivo; settings: added to the drinking water, 24 hrs (FIG. 5)
Method: FIG. 5 illustrates the effect of oral apo A-1 peptide mimetic and apoJ peptide on LDL susceptibility to oxidation. […] After 24 hrs blood was collected from the mice shown in FIG. 4, plasma fractionated by FPLC and fractions containing LDL (designated as mLDL for murine LDL) were pooled and LDL susceptibility to oxidation as determined by induction of monocyte chemotactic activity was determined.
Murine LDL, mLDL, from mice that received the D-4F mLDL) or those that received the apoJ peptide (J mLDL) were added to artery wall cell cultures.

Which “potency compared with D-4F in enhancing HDL protective capacity” value [1] does the source give for Ac-LLEQLNEQFNWVSRLANLTQGE-NH2 [D-J336] here?
The value was “as potent as D4F”.

And the “potency compared with D-4F in enhancing HDL protective capacity” value ([1]; listed as D-J peptide)?
The value was “as potent as D-4F”.

What about the “activity of murine HDL compared with normal human HDL against LDL-induced monocyte chemotactic activity” value ([1]; apoE null mice, peptide in drinking water, 24 hrs, murine HDL at 100 μg/ml) of the same substance?
The value was “as active as 350 μg/ml of normal human HDL”.

What about the “times more potent than D-4F in preventing LDL oxidation by artery wall cells” value [2] of the same substance?
Its value is 10-25 times.

What about the “potency compared with D-4F in causing HDL to inhibit oxidation of PAPC by HPODE (generation of monocyte chemotactic activity)” value [3] of the same substance?
The value was “as potent as D-4F”.

And the “potency compared with D-4F in causing HDL to inhibit oxidation of PAPC by HPODE (generation of monocyte chemotactic activity)” value ([3]; listed as DJ336)?
The value was “as potent as D4F”.

And the “activity of mouse HDL in preventing control LDL from inducing monocyte chemotactic activity, compared with control human HDL” value ([4]; LDL receptor null mice, 0.25 or 0.5 mg per ml drinking water, 24 or 48 hrs, mouse HDL at 100 μg/ml)?
Its value is “as active as 350 μg/ml of control human HDL”.

And the “effectiveness compared with D4F in preventing LDL-induced monocyte chemotactic activity” value ([4]; given orally to LDL receptor null mice (FIG. 3))?
Its value is “essentially as effective as D4F”.

What about the “potency compared with D-4F in increasing paraoxonase activity” value [5] of the same substance?
Its value is “at least as potent as D-4F”.

What about the “potency compared with D-4F in increasing paraoxonase activity” value ([5]; listed as DJ336) of the same substance?
Its value is “at least as potent as D4F”.

What about the “potency compared with D-4F in rendering LDL resistant to oxidation by human artery wall cells (induction of monocyte chemotactic activity)” value [6] of the same substance?
The value was “lightly more potent than D-4F”.

What about the “potency compared with D-4F in rendering LDL resistant to oxidation by human artery wall cells (induction of monocyte chemotactic activity)” value ([6]; listed as DJ336) of the same substance?
The value was “slightly more potent than D4F”.
